Experiment [1] relates to LPL. Nature of the experiment: Lipase activity inhibition in raw milk samples after incubation with Orlistat. To be noted: raw milk samples (n=2); 10 μM Orlistat; incubated 1 h (FIG. 4). In kind it is biochemical. As to the method:
FIG. 4 is a graph sowing lipase activity inhibition after incubation with Orlistat. […] LPL activity in milk spiked with 6 pmol LPL and increasing levels of Orlistat (an LPL inhibitor) was monitored over the course of 20 min (FIG. 3). […] Raw milk samples were also treated with this level of Orlistat (10 μM) (FIG. 4).

Experiment [2] concerns the target T1, LPL (Homo sapiens, UniProt P06858).
T1 sequence (P06858 28-475): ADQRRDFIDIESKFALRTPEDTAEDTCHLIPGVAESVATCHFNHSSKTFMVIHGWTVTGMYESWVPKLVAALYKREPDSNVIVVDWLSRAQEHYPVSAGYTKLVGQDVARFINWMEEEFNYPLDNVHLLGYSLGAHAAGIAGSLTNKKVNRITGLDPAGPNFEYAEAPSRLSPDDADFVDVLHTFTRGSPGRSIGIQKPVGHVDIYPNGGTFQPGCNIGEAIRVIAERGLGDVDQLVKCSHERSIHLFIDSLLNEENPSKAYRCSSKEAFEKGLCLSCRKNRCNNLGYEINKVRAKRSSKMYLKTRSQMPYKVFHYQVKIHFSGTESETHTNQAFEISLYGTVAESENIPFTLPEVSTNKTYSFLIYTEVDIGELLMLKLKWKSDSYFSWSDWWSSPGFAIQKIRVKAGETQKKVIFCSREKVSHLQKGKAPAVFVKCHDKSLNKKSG
Briefly: LPL activity in milk spiked with 6 pmol LPL, with increasing levels of Orlistat. The conditions noted are these: 10 μM Orlistat, monitored over 20 min (FIG. 3). The experiment is classed as biochemical. The protocol:
FIG. 3 is a graph showing measurement of LPL activity in milk spiked with 6 pmol LPL in the absence or presence of LPL inhibitor, Orlistat.
LPL activity in milk spiked with 6 pmol LPL and increasing levels of Orlistat (an LPL inhibitor) was monitored over the course of 20 min (FIG. 3). […] Raw milk samples were also treated with this level of Orlistat (10 μM) (FIG. 4).

As to `CCCCCCCCCCC[C@@H](C[C@@H]1OC(=O)[C@H]1CCCCCC)OC(=O)[C@H](CC(C)C)NC=O` [Orlistat], the “decrease in lipase activity (LPL)” value with LPL [1] was 22%. In addition, the “reduction in LPL activity” value at LPL [2] is listed as “most significant reduction in LPL”.

The values are drawn from patent US20200323225A1, “LIPASE INHIBITORS TO PREVENT RANCIDITY IN EXPRESSED HUMAN MILK DURING STORAGE” (STC.UNM, priority 2017, published 2020).
